Where two headings read alike, the source gives them in different places.
Columns and labels:
[1] = biological target: T1, Sgk1 (Homo sapiens, UniProt O00141); assay: Enzyme based assay for SGK1 (biotinylated Akt Substrates-2 peptide, Eu3+ Cryptate/XL665 detection); format: biochemical
T1 sequence (O00141 1-431): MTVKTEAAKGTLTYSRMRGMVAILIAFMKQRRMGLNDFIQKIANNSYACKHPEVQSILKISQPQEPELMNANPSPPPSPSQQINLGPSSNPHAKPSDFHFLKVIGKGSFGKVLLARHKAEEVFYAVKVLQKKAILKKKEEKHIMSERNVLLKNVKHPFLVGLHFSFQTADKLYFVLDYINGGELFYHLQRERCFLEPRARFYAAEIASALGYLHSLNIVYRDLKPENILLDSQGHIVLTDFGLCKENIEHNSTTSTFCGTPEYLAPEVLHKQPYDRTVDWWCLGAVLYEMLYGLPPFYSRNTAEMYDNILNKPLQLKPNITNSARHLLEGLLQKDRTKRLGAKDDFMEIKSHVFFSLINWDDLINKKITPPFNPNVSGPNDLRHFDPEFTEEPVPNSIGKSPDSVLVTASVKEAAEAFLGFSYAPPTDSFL
Procedure: (§1) 1. Enzyme Based Assays for SGK1, SGK2, SGK3, and Akt1
(§2) The kinase enzymatic reaction is carried out with a biotinylated Akt Substrates-2 peptide substrate. The phosphorylated substrate is then detected using a specific anti-phospho peptide antibody which is coupled with Eu^3+ Cryptate and XL665 conjugated with streptavidin.
(§3) Exemplary Assay Conditions
(§4) • Enzyme: ˜0.1 nM • Substrate: 0.2 μM • ATP: 50 μM and 1 mM • Mg^2+: 10 mM • Reaction time: 60 min with 50 μM ATP and 30 min with 1 mM ATP • SA-XL to Biotin: 1:10
(§5) Detailed Steps • 1. prepare the enzyme and substrate solution with the buffer from Cisbio • 2. add the enzyme and substrate solution to the diluted compound plate • 3. transfer 5 μL of compound, enzyme, and substrate mixture to an 384-well assay plate • 4. add 5 μL ATP (with Mg^2+) solution to initiate the reaction • 5. after certain time, add 10 μL of stop solution containing SA-XL and specific antibody • 6. read the plate after 2 h incubation at rt • 7. process the data using prizm software (Exemplary results are shown in FIG. 1.) 2. PK Studies Protocol

[2] = biological target: T2, Sgk2 (Homo sapiens, UniProt Q9HBY8); assay: Enzyme based assay for SGK2 (biotinylated Akt Substrates-2 peptide, Eu3+ Cryptate/XL665 detection); format: biochemical
T2 sequence (Q9HBY8 1-367): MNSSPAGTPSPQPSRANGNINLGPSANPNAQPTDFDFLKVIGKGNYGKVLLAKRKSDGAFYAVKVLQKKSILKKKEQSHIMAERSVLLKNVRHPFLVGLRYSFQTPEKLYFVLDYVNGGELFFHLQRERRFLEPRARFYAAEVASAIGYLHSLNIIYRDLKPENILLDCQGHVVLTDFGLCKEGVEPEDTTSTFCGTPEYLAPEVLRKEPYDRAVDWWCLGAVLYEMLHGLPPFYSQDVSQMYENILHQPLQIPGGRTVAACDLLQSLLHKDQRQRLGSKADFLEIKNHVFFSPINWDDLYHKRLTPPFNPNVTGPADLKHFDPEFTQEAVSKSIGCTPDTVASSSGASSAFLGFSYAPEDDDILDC
Procedure: as §1, §2, §3, §4, §5

[3] = PK study in male ICR mice, intravenous and oral administration, plasma concentration; format: in vivo; conditions: for MRT inf: read-out: MRT(0-∞)
Description: 3 Male mice/group, 8 groups total with Intravenous and Oral Administration, then measure the compound concentration in plasma.
Selected Pharmacokinetics Parameters of Compound N in Male ICR Mice Following Intravenous and Oral Administration

[4] = 50 μM ATP, read-out: Sgk1 (50 μM ATP)
[5] = 1 mM ATP, read-out: Sgk1 (1 mM ATP)
[6] = 50 μM ATP, read-out: Sgk2 (50 μM ATP)
[7] = 1 mM ATP, read-out: Sgk2 (1 mM ATP)

Structure (SMILES)	IC50 [1, 4] [nM]	IC50 [1, 5] [nM]	IC50 [2, 6] [nM]	IC50 [2, 7] [nM]	other results
COc1ccc(F)c(S(=O)(=O)Nc2ccc(-c3cc(OCC4CNCCO4)c4cn[nH]c4n3)cc2)c1 (stereo not shown)	3.4	10.7	3.5	9.8	–
COc1ccc(Cl)c(S(=O)(=O)Nc2ccc(-c3cc(OCC4CNCCO4)c4cn[nH]c4c3)cc2)c1 (stereo not shown)	1.8	31.9	1.8	25.2	–
COc1ccc(F)c(S(=O)(=O)Nc2ccc(-c3cc(OCC4CNCCO4)c4c(N)n[nH]c4c3)cc2)c1 (stereo not shown)	2.3	3.9	2	3.8	–
COc1ccc(F)c(S(=O)(=O)Nc2ccc(-c3cc4[nH]ncc4c(NCC4CNCCO4)n3)cc2)c1 (stereo not shown)	8.1	4.2	5.3	3.5	–
COc1ccc(F)c(S(=O)(=O)Nc2ccc(-c3cc(OC)c4c(N)n[nH]c4n3)cc2)c1	17.1	112	3	35.7	–
COc1ccc(F)c(S(=O)(=O)Nc2ccc(-c3cc4[nH]ncc4c(OC)n3)cc2)c1	70.6	–	38.5	32.7	–
COc1ccc(F)c(S(=O)(=O)Nc2ccc(-c3cc(O[C@H]4CCOC4)c4c(N)n[nH]c4c3)cc2)c1	5.2	2.9	10.3	16.4	–
COc1ccc(F)c(S(=O)(=O)Nc2ccc(-c3cc(O[C@@H]4CCOC4)c4c(N)n[nH]c4c3)cc2)c1	5.5	1.5	4.6	9.3	–
COc1ccc(F)c(S(=O)(=O)Nc2ccc(-c3cc(OC4COC4)c4c(N)n[nH]c4c3)cc2)c1	8.6	3.8	4.4	6.5	–
COc1ccc(F)c(S(=O)(=O)Nc2ccc(-c3cc(OCC(C)(C)O)c4c(N)n[nH]c4c3)cc2)c1	36.1	–	38.3	39.3	–
COc1ccc(F)c(S(=O)(=O)Nc2ccc(-c3cc(C)c4c(N)n[nH]c4c3)cc2)c1	21.5	49.9	8.4	71.5	–
COc1ccc(F)c(S(=O)(=O)Nc2ccc(-c3cc4c5c(n[nH]c5c3)NC(=O)CO4)cc2)c1	30.6	970	24.3	222	–
COCCOc1cc(-c2ccc(NS(=O)(=O)c3cc(OC)ccc3F)cc2)nc2[nH]nc(N)c12	28.7	10.4	9.6	69.4	–
COc1ccc(F)c(S(=O)(=O)Nc2ccc(-c3cc(OCCN(C)C)c4c(N)n[nH]c4c3)cc2)c1	27	20	9.1	104	–
CNCCOc1cc(-c2ccc(NS(=O)(=O)c3cc(OC)ccc3F)cc2)cc2[nH]nc(N)c12	17.7	11.3	6	38.8	–
COc1ccc(F)c(S(=O)(=O)Nc2ccc(-c3cc(OC(C)C)c4c(N)n[nH]c4c3)cc2)c1	42.3	58.8	64	192	–
COc1ccc(F)c(S(=O)(=O)Nc2ccc(-c3cc(OC)c4c(N)n[nH]c4c3)nc2)c1	13	11.1	5	6.5	–
COc1ccc(F)c(S(=O)(=O)Nc2ccc(-c3cc(OC)c4c(N)n[nH]c4c3)cn2)c1	29.7	133	7.2	29.7	–
COc1ccc(F)c(S(=O)(=O)Nc2ccc(-c3cc4c5c(n[nH]c5c3)NC(=O)C(C)(C)O4)cc2)c1	77.6	344	35	323	–

Structure (SMILES)	IC50 [1, 4] [nM]	IC50 [1, 5] [nM]	IC50 [2, 6] [nM]	IC50 [2, 7] [nM]	other results
COc1ccc(F)c(S(=O)(=O)Nc2ccc(-c3cc4c5c(n[nH]c5c3)NC(=O)CN4)cc2)c1	4.8	12.6	3.4	18.6	–
CCOc1cc(-c2ccc(NS(=O)(=O)c3cc(OC)ccc3F)cc2)nc2[nH]nc(N)c12	16.2	8.2	7.8	10.1	–
COc1ccc(F)c(S(=O)(=O)Nc2ccc(-c3cc(OCCN(C)C)c4c(N)n[nH]c4n3)cc2)c1	45	187	4.2	40	–
COc1ccc(F)c(S(=O)(=O)Nc2ccc(-c3cc(OC4CCOC4)c4c(N)n[nH]c4n3)cc2)c1 (stereo not shown)	24.7	8.9	7.6	7.6	–
COc1ccc(F)c(S(=O)(=O)Nc2ccc(-c3cc(C)c4c(N)n[nH]c4c3)nc2)c1	10.1	9.2	5	7.9	–
CCOc1cc(-c2ccc(NS(=O)(=O)c3cc(OC)ccc3F)cn2)cc2[nH]nc(N)c12	14.1	110	75	19.8	–
COCCOc1cc(-c2ccc(NS(=O)(=O)c3cc(OC)ccc3F)cn2)cc2[nH]nc(N)c12	40	15.3	4.5	33.2	–
COc1ccc(F)c(S(=O)(=O)Nc2ccc(-c3cc(O[C@H]4CCOC4)c4c(N)n[nH]c4c3)nc2)c1	109	181	14.6	17.8	–
COc1ccc(F)c(S(=O)(=O)Nc2ccc(-c3cc(O[C@@H]4CCOC4)c4c(N)n[nH]c4c3)nc2)c1	8.5	10.3	4	36	–
COc1ccc(F)c(S(=O)(=O)Nc2ccc(-c3cc4[nH]ncc4cn3)cc2)c1	160	> 200	9.7	> 200	–
Cc1n[nH]c2nc(-c3ccc(NS(=O)(=O)c4cc(Cl)ccc4F)cc3)ccc12	12.1	–	5.9	–	–
COc1ccc(Cl)c(NS(=O)(=O)c2ccc(-c3ccc4c(N)n[nH]c4n3)cc2)c1	> 2000	–	109	–	–
COc1ccc(F)c(S(=O)(=O)Nc2ccc(-c3ccc4cn[nH]c4c3)nc2)c1	92.5	144	31.4	267	–
COc1ccc(F)c(S(=O)(=O)Nc2ccc(-c3cnc4c(N)n[nH]c4c3)nc2)c1	141	208	27.8	134	–
COc1ccc(F)c(S(=O)(=O)Nc2cnc(-c3ccc4c(N)n[nH]c4c3)nc2)c1	14.1	62.2	3.7	7.5	–
COc1ccc(F)c(S(=O)(=O)Nc2cnc(-c3cc(OC)c4c(N)n[nH]c4c3)nc2)c1	17.9	27.3	5.4	4	–
Nc1n[nH]c2cc(-c3ccc(NS(=O)(=O)c4cccc(Cl)c4Cl)cn3)ccc12	150	542	17.1	13.4	–
COc1ccc(F)c(S(=O)(=O)Nc2ccc(-c3ccc4c(N)n[nH]c4c3)nc2)c1 [Compound N, N-(6-(3-amino-1H-indazol-6-yl)pyridin-3-yl)-2-fluoro-5-methoxybenzenesulfonamide]	–	–	–	–	CLz ([3]; IV (2 mg/kg)): 0.17 mL/min/kg; t1/2z ([3]; IV (2 mg/kg)): 6.99 h; t1/2z ([3]; PO (20 mg/kg)): 17.27 h; F ([3]; PO (20 mg/kg), F is calculated from AUC(0-t)): 63.37%; AUC(0-inf) ([3]; mouse, plasma, IV (2 mg/kg)): 165 µg·h/mL; AUC(0-t) ([3]; mouse, plasma, IV (2 mg/kg)): 151 µg·h/mL; Cmax ([3]; mouse, plasma, IV (2 mg/kg)): 29.1 µg/mL; Tmax ([3]; mouse, plasma, IV (2 mg/kg)): 0.08 h; MRT inf ([3]; mouse, plasma, IV (2 mg/kg)): 8.84 h; Vd ([3]; mouse, plasma, IV (2 mg/kg), read-out: Vz): 0.12 L/kg; AUC(0-inf) ([3]; mouse, plasma, PO (20 mg/kg)): 1530 µg·h/mL; AUC(0-t) ([3]; mouse, plasma, PO (20 mg/kg)): 957 µg·h/mL; Cmax ([3]; mouse, plasma, PO (20 mg/kg)): 71.9 µg/mL; Tmax ([3]; mouse, plasma, PO (20 mg/kg)): 0.25 h; MRT inf ([3]; mouse, plasma, PO (20 mg/kg)): 24.1 h
COc1ccc(F)c(S(=O)(=O)Nc2ccc(-c3ccc4c(N)n[nH]c4c3)nc2)c1 [drawing 151]	25	158	4.6	20.8	–

Source: US11236083B2, “Compounds and pharmaceutical compositions for modulating SGK activity, and methods thereof” (NEW ERA PHARMA, INC., priority 2016, dated 2022)
